Experimental data as given in patent US11819499B2, “Single-dose, ready-to-use injectable formulations” (BioSplice Therapeutics, Inc., priority 2016, dated 2023).
Marks after values point to notes of the source that are not given here. Each block holds one molecule with its values, some of them ahead of it.

What was measured:
Assay type in all cases: physicochemical
[1] = Drying or heating in a DSC chamber followed by XRD (form conversion)
Procedure: The Form 1 solid was dried at 75° C. under vacuum overnight, and XRD, DSC, and TGA scans were performed. […] However, the DSC scans indicated the absence of endotherm. The loss of the early peak on the DSC scan had no effect on the XRD trace, showing that the wide endotherm between 50-100° C. on DSC scan was due to the free solvent.
The Form 1 solid was heated in a DSC chamber to 305° C. (past the endotherm/exotherm around 280° C.), and then scanned by XRD. […] It can be concluded that the endotherm/exotherm around 280° C. might be due to melting/crystallization events.
The Form 2 solid was heated in a DSC machine to 90° C. (past the wide endotherm between 50-100° C.); to 270° C. (past the endotherm/exotherm around 240° C.); and finally to 330° C. (past the […]). The residual solid was analyzed by XRD. […] The wide endotherm between 50-100° C. might be free solvent or hydrate. […] Thus, the exotherm around 290° C. was a re-crystallization event. According to an XRD and DSC overlay, the behavior of Form 2* was similar to Form 2.
This has been confirmed for Forms 1 and 2.
Form 13 solid was heated in a DSC chamber to 170° C. (past the endotherm between 50-100° C.), and then scanned by XRD. […] It can be concluded that the endotherm between 50-100° C. is due to bonded water.
Form 13 solid was heated in a DSC chamber to 330° C. (past the endotherm/exotherm around 300° C.), and then scanned by XRD. […] It can be concluded that the endotherm/exotherm is due to melting/crystallization events.

[2] = Competitive slurry experiments between polymorph forms (15 forms mixed, 3-5 days, XRD)
Procedure: In order to find out the thermodynamic stability between the different forms, several competitive slurry experiments were carried out. Form 1, Form 2, Form 2*, Form 3, Form 4, Form 4*, Form 4**, Form 5, Form 7, Form 8, Form 9, Form 10, Form 11, Form 11*, and Form 13 (10 mg for each) was mixed and slurried in 2 mL of solvent at both RT and 50° C. The solids were slurried for 3-5 days and then analyzed by XRD.

[3] = Dynamic vapor sorption (DVS) scan
Excerpt: The purity of the Form 13 sample was 98.8%; the KF of an undried Form 13 sample was 35.7%.

[4] = Exposure to relative humidity / air followed by XRD; conditions: for XRD after drying at 50° C. under vacuum: after air exposure overnight, then dried at 50° C. under vacuum; for XRD after exposure to air overnight: exposed to air overnight
Excerpt: FIGS. 15A-15D are scans of Form 1 in the presence of increasing relative humidity (RH), an example of a non-stoichiometric or stoichiometric hydrate of polymorph Form 1 of the compound of Formula (I). FIG. 15A is an x-ray powder diffraction scan of Form 1 exposed to 10% RH as the anhydrous Form 1. FIG. 15B is an x-ray powder diffraction scan of Form 1 exposed to 20% RH as a partial hydrate of Form 1. FIG. 15C is an x-ray powder diffraction scan of Form 1 exposed to 30% RH as a hydrate of Form 1 (≈10-12% water uptake). FIG. 15D is an x-ray powder diffraction scan of Form 1 exposed to 90% RH as a full hydrate of Form 1 (≈17-20% water uptake). […] The hydrate lost its water below 30% RH. […] The crystal lattice of Form 1 expanded when water was sorbed, giving rise to XRD peaks at ˜5, ˜7 and ˜11 degrees while maintaining the main XRD pattern. The hydrates of Form 1 of a compound of Formula (I) (Form 11) were fully reversible, and lost water when exposed to % RH of less than 20%, turning Form 11 to hydrated forms of Form 1 and to the anhydrous Form 1. Solvates 1 and 2 solids were exposed to air overnight, and then analyzed by XRD. After the analysis, the solids were dried at 50° C. under vacuum, and then analyzed by XRD again.

[5] = Reslurry experiments (polymorph screen) in 39 pure and binary solvents at RT and 50° C. for 5 days, XRD of wet and dry samples
Procedure: Reslurry experiments in various solvents were performed. Approximately 30-80 mg of the starting solid (a non-stoichiometric or stoichiometric hydrate of Form 1 having between 1% and about 20% by weight water) was slurried in 39 different solvents (pure and binary solvents; the ratio of organic solvent/water (V/V) was 95%/5%) at RT and 50° C. for 5 days. Three solvates, one hydrate, and eleven non-solvated forms were identified. […] XRD of both wet and dry samples were scanned (FIG. 12A (dry sample)).
The slurry experiments identified 3 solvated forms from wet samples (Solvates 1, 2, and 3); 2 non-stoichiometric hydrates of Form 1 (Forms 12 and 13); and 11 non-solvated forms (Forms 1-11). In some instances, similar XRD scans with minor differences were obtained. These were considered to be part of the same class (e.g., the same form). For example, XRD scans of Form 2 and Form 2* were similar and were considered to belong to the same class. The solvated forms were obtained from wet sample analysis; after drying, the sample indicated a different XRD.
Solvate 1 was obtained from acetone at RT, and after drying, a low crystallinity solid was generated. Solvate 2 was obtained from acetone (at RT) and acetone/water (at RT), and after drying, Form 4** was generated. Solvate 3 was obtained from EtOH/water at RT, and after drying, Form 2 was generated.

[6] = reslurry in Acetonitrile/water (5% water), RT
[7] = reslurry in EA/water (5% water), RT
[8] = reslurry in Heptane/water (5% water), RT
[9] = reslurry in IPAc/water (5% water), RT
[10] = reslurry in MA/water (5% water), 50° C.
[11] = reslurry in MIBK/water (5% water), RT
[12] = reslurry in MeOH/water (5% water), RT
[13] = reslurry in MtBE/water (5% water), RT
[14] = reslurry in n-Butyl acetate/water (5% water), RT
[15] = reslurry in Acetone/water (5% water), RT
[16] = reslurry in EtOH/water (5% water), RT

SMILES: CC(C)CC(=O)Nc1cncc(-c2ccc3[nH]nc(-c4nc5c(-c6cccc(F)c6)cncc5[nH]4)c3c2)c1 [Form 2, N-(5-(3-(7-(3-fluorophenyl)-3H-imidazo[4,5-c]pyridin-2-yl)-1H-indazol-5-yl)pyridin-3-yl)-3-methylbutanamide]
form after heating (XRD) ([1]; heated in a DSC machine to 90° C.): did not change
form after heating (XRD) ([1]; heated to 270° C.): converted to low crystalline solids
form after heating (XRD) ([1]; heated to 330° C.): converted to Form 9
form when heated to just before melting ([1]; heated to just before melting at 364° C.): convert to Form 9
thermodynamic stability between forms (competitive slurry) ([2]; MeOH, EtOH, and acetone system at both RT and 50° C.): most stable form

SMILES: CC(C)CC(=O)Nc1cncc(-c2ccc3[nH]nc(-c4nc5c(-c6cccc(F)c6)cncc5[nH]4)c3c2)c1 [Form 4, N-(5-(3-(7-(3-fluorophenyl)-3H-imidazo[4,5-c]pyridin-2-yl)-1H-indazol-5-yl)pyridin-3-yl)-3-methylbutanamide]
thermodynamic stability between forms (competitive slurry) ([2]; EA at RT and 50° C.): most stable

SMILES: CC(C)CC(=O)Nc1cncc(-c2ccc3[nH]nc(-c4nc5c(-c6cccc(F)c6)cncc5[nH]4)c3c2)c1 [Form 9, N-(5-(3-(7-(3-fluorophenyl)-3H-imidazo[4,5-c]pyridin-2-yl)-1H-indazol-5-yl)pyridin-3-yl)-3-methylbutanamide]
form before and after the DVS scan ([3]; DVS scan): did not change its form
water absorption (DVS scan) ([3]; at 90% RH): 0.8%

SMILES: CC(C)CC(=O)Nc1cncc(-c2ccc3[nH]nc(-c4nc5c(-c6cccc(F)c6)cncc5[nH]4)c3c2)c1 [Form 11, N-(5-(3-(7-(3-fluorophenyl)-3H-imidazo[4,5-c]pyridin-2-yl)-1H-indazol-5-yl)pyridin-3-yl)-3-methylbutanamide]
RH below which the hydrate lost its water ([4]; relative humidity): less than 20%

SMILES: CC(C)CC(=O)Nc1cncc(-c2ccc3[nH]nc(-c4nc5c(-c6cccc(F)c6)cncc5[nH]4)c3c2)c1 [Form 12, N-(5-(3-(7-(3-fluorophenyl)-3H-imidazo[4,5-c]pyridin-2-yl)-1H-indazol-5-yl)pyridin-3-yl)-3-methylbutanamide]
Dry (form by XRD) [5, 6]: Form 1
Wet (form by XRD) [5, 6]: Form 12
Dry (form by XRD) [5, 7]: Form 1
Wet (form by XRD) [5, 7]: Form 12
Dry (form by XRD) [5, 8]: Form 12
Wet (form by XRD) [5, 8]: Form 13
Dry (form by XRD) [5, 9]: Form 1
Wet (form by XRD) [5, 9]: Form 12
Dry (form by XRD) [5, 10]: Form 4
Wet (form by XRD) [5, 10]: Form 12
Dry (form by XRD) [5, 11]: Form 1
Wet (form by XRD) [5, 11]: Form 12
Dry (form by XRD) [5, 12]: Form 1
Wet (form by XRD) [5, 12]: Form 12
Dry (form by XRD) [5, 13]: Form 1
Wet (form by XRD) [5, 13]: Form 12
Dry (form by XRD) [5, 14]: Form 12
Wet (form by XRD) [5, 14]: Form 13

More lines, main results first:

Dry (form by XRD) ([5]; reslurry in Acetone, RT): Low
Wet (form by XRD) ([5]; reslurry in Acetone, RT): Solvate 1
XRD after drying at 50° C. under vacuum [4]: still low crystallinity solid
XRD after exposure to air overnight [4]: converted to low crystallinity
SMILES: CC(C)CC(=O)Nc1cncc(-c2ccc3[nH]nc(-c4nc5c(-c6cccc(F)c6)cncc5[nH]4)c3c2)c1 [Solvate 1, N-(5-(3-(7-(3-fluorophenyl)-3H-imidazo[4,5-c]pyridin-2-yl)-1H-indazol-5-yl)pyridin-3-yl)-3-methylbutanamide]

Dry (form by XRD) ([5]; reslurry in Acetone, 50° C.): Form 4**
Wet (form by XRD) ([5]; reslurry in Acetone, 50° C.): Solvate 2
Dry (form by XRD) [5, 15]: Form 4**
Wet (form by XRD) [5, 15]: Solvate 2
XRD after exposure to air overnight [4]: changed a little
SMILES: CC(C)CC(=O)Nc1cncc(-c2ccc3[nH]nc(-c4nc5c(-c6cccc(F)c6)cncc5[nH]4)c3c2)c1 [Solvate 2, N-(5-(3-(7-(3-fluorophenyl)-3H-imidazo[4,5-c]pyridin-2-yl)-1H-indazol-5-yl)pyridin-3-yl)-3-methylbutanamide]
XRD after drying at 50° C. under vacuum [4]: remained the same as the solid exposed to air overnight

Dry (form by XRD) [5, 16]: Form 2
Wet (form by XRD) [5, 16]: Solvate 3
SMILES: CC(C)CC(=O)Nc1cncc(-c2ccc3[nH]nc(-c4nc5c(-c6cccc(F)c6)cncc5[nH]4)c3c2)c1 [Solvate 3, N-(5-(3-(7-(3-fluorophenyl)-3H-imidazo[4,5-c]pyridin-2-yl)-1H-indazol-5-yl)pyridin-3-yl)-3-methylbutanamide]
